#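 Five concentrations, 48 hours, 96-well plates. GI50 marks 50% less growth. TGI marks complete inhibition of growth.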
# Experiments:
# Assay in all cases: NCI anticancer screen, dose series, 48 h
# [1] = test system: 786-0 renal
# [2] = test system: DU-145 prostate
# [3] = test system: NCI/ADR-RES ovarian
# [4] = test system: HL-60(TB) leukemia
# [5] = test system: HCT-15 colon
# [6] = test system: PC-3 prostate
# [7] = test system: UACC-62 melanoma
# [8] = test system: U251 CNS
# [9] = test system: HCC-2998 colon
# [10] = test system: IGROV1 ovarian
# [11] = test system: SN12C renal
# [12] = test system: T-47D breast
# [13] = test system: SR leukemia
# [14] = test system: BT-549 breast
# [15] = test system: COLO 205 colon
# [16] = test system: SNB-75 CNS
# [17] = test system: CAKI-1 renal
# [18] = test system: UO-31 renal
# [19] = test system: EKVX NSCLC
# [20] = test system: MDA-MB-435
# [21] = test system: SK-MEL-2 melanoma
# [22] = test system: RPMI-8226 leukemia
# [23] = test system: MDA-MB-231 breast
# [24] = test system: SK-OV-3 ovarian
# [25] = test system: MOLT-4 leukemia
# [26] = test system: NCI-H522 lung
# [27] = test system: OVCAR-5 ovarian
# [28] = test system: HS 578T breast
# [29] = test system: OVCAR-3 ovarian
# [30] = test system: A549 NSCLC
# [31] = test system: UACC-257 melanoma
# [32] = test system: LOX IMVI melanoma
# [33] = test system: SK-MEL-28 melanoma
# [34] = test system: SK-MEL-5 melanoma
# [35] = test system: SF-268 CNS
# [36] = test system: KM12 colon
# [37] = test system: NCI-H226 lung
# [38] = test system: HT29 colon
# [39] = test system: SNB-19 CNS
# [40] = test system: OVCAR-8 ovarian
# [41] = test system: TK-10 renal
# [42] = test system: RXF 393 renal
# [43] = test system: K-562 leukemia
# [44] = test system: A498 renal
# [45] = test system: SW-620 colon
# [46] = test system: OVCAR-4 ovarian
# [47] = test system: MDA-MB-468 breast
# [48] = test system: ACHN renal
# [49] = test system: HOP-62 NSCLC
# [50] = test system: SF-295 CNS
# [51] = test system: SF-539 CNS
# [52] = test system: M14 melanoma
# [53] = test system: MCF7 breast
# [54] = test system: NCI-H23 lung
# [55] = test system: HCT-116 colon
# [56] = test system: MALME-3M melanoma
# [57] = test system: HOP-92 NSCLC
# [58] = test system: CCRF-CEM leukemia
smiles,measurement,setting,value
O=C(NN1C(=O)/C(=C/C=C/c2ccc([N+](=O)[O-])o2)SC1=S)c1ccccc1O,GI50,[1],1110 nM
same,TGI,[1],2330 nM
same,GI50,[2],1590 nM
same,TGI,[2],3020 nM
same,GI50,[3],1780 nM
same,TGI,[3],5750 nM
same,GI50,[4],1730 nM
same,TGI,[4],9470 nM
same,GI50,[5],149 nM
same,TGI,[5],340 nM
same,GI50,[6],1920 nM
same,TGI,[6],4940 nM
same,GI50,[7],675 nM
same,TGI,[7],1900 nM
same,GI50,[8],1270 nM
same,TGI,[8],2620 nM
same,GI50,[9],1370 nM
same,TGI,[9],2700 nM
same,GI50,[10],1230 nM
same,TGI,[10],2480 nM
same,GI50,[11],237 nM
same,TGI,[11],714 nM
same,GI50,[12],1630 nM
same,TGI,[12],3230 nM
same,GI50,[13],221 nM
same,TGI,[13],> 100000 nM
same,GI50,[14],673 nM
same,TGI,[14],1800 nM
same,GI50,[15],957 nM
same,TGI,[15],2280 nM
same,GI50,[16],1290 nM
same,TGI,[16],5840 nM
same,GI50,[17],1330 nM
same,TGI,[17],2670 nM
same,GI50,[18],1240 nM
same,TGI,[18],2490 nM
same,GI50,[19],1370 nM
same,TGI,[19],2750 nM
same,GI50,[20],371 nM
same,TGI,[20],1380 nM
same,GI50,[21],663 nM
same,TGI,[21],2060 nM
same,GI50,[22],379 nM
same,TGI,[22],2530 nM
same,GI50,[23],257 nM
same,TGI,[23],613 nM
same,GI50,[24],2260 nM
same,TGI,[24],5280 nM
same,GI50,[25],390 nM
same,TGI,[25],7560 nM
same,GI50,[26],262 nM
same,TGI,[26],749 nM
same,GI50,[27],1840 nM
same,TGI,[27],3300 nM
same,GI50,[28],2100 nM
same,TGI,[28],7470 nM
same,GI50,[29],1230 nM
same,TGI,[29],2540 nM
same,GI50,[30],2980 nM
same,TGI,[30],10500 nM
same,GI50,[31],1720 nM
same,TGI,[31],3600 nM
same,GI50,[32],194 nM
same,TGI,[32],402 nM
same,GI50,[33],1680 nM
same,TGI,[33],3130 nM
same,GI50,[34],771 nM
same,TGI,[34],2030 nM
same,GI50,[35],1800 nM
same,TGI,[35],4200 nM
same,GI50,[36],1620 nM
same,TGI,[36],3770 nM
same,GI50,[37],1110 nM
same,TGI,[37],2690 nM
same,GI50,[38],1000 nM
same,TGI,[38],2780 nM
same,GI50,[39],1760 nM
same,TGI,[39],3340 nM
same,GI50,[40],366 nM
same,TGI,[40],1600 nM
same,GI50,[41],1960 nM
same,TGI,[41],4190 nM
same,GI50,[42],1420 nM
same,TGI,[42],2760 nM
same,GI50,[43],276 nM
same,TGI,[43],> 33300 nM
same,GI50,[44],18300 nM
same,TGI,[44],32600 nM
same,GI50,[45],196 nM
same,TGI,[45],426 nM
same,GI50,[46],1720 nM
same,TGI,[46],3720 nM
same,GI50,[47],1400 nM
same,TGI,[47],3070 nM
same,GI50,[48],1460 nM
same,TGI,[48],2780 nM
same,GI50,[49],1620 nM
same,TGI,[49],3110 nM
same,GI50,[50],1790 nM
same,TGI,[50],3420 nM
same,GI50,[51],1310 nM
same,TGI,[51],2670 nM
same,GI50,[52],298 nM
same,TGI,[52],873 nM
same,GI50,[53],432 nM
same,TGI,[53],2020 nM
same,GI50,[54],846 nM
same,TGI,[54],2170 nM
same,GI50,[55],197 nM
same,TGI,[55],395 nM
same,GI50,[56],223 nM
same,TGI,[56],507 nM
same,GI50,[57],1680 nM
same,TGI,[57],4130 nM
same,GI50,[58],318 nM
same,TGI,[58],1490 nM
